Experimental data taken from patent publication US20240374761A1, “ANIMAL MODEL HAVING HOMOLOGOUS RECOMBINATION OF MOUSE PTH1 RECEPTOR” (RADIUS PHARMACEUTICALS, INC., priority 2021, published 2024).
“Also recorded” adds a separate entry of the source. Like-named read-outs stand apart in the source and are kept apart here.

Key:
[1] = target: T1, human PTH1R (hPTH1R-KI mice) (Homo sapiens, UniProt Q03431); assay: Antagonist response: blood calcium after co-injection with PTH(1-34) in hPTH1R-KI mice; assay type: in vivo, mouse; conditions: 3-month-old hPTH1R-KI mice, 40 nmol/kg subcutaneous
T1 construct: Met593 (followed by a stop codon); expressed in transfected cells; host or cells: homozygous hPTH1R-KI C57BL/6 mice (knock-in at the mouse Pth1r locus), in vivo
T1 sequence (Q03431 23-593 E90Y/S91D/E92V/E93P/K95Y/E96A): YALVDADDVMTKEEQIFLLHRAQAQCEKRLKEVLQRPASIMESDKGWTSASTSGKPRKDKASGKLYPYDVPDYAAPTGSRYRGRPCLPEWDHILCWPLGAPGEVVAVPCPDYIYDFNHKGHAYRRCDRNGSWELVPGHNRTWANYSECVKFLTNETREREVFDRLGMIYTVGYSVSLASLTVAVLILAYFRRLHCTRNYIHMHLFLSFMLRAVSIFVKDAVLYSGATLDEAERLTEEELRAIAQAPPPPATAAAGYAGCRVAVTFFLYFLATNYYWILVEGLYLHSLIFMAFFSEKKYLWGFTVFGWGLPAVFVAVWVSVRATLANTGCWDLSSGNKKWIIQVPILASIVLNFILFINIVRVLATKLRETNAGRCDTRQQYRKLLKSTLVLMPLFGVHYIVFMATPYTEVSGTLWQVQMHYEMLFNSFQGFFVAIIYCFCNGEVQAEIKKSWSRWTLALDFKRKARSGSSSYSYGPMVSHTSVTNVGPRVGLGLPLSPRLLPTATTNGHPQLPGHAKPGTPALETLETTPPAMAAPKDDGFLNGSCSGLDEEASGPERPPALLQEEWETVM
Protocol: (§1) Briefly, to assess the responses to antagonist PTH analogs, 3-month-old WT or hPTH1R-KI mice were injected subcutaneously with either (1) vehicle, (2) vehicle containing PTH(1-34) alone at 40 nmol/kg, or (3) PTH(1-34) at 40 nmol/kg together with an antagonist peptide, LA-PTH(7-36) or [Leu^11,dTrp^12,Trp^23,Tyr^36]-PTHrP(7-36), each antagonist at a dose of 500 nmol/kg (n=5 mice per group). Blood was collected from the tail vein and calcium was measured as described above in Example 13.

[2] = target: T2, endogenous rodent PTH receptor (WT C57BL/6 mice) (Mus musculus, UniProt P41593); assay: Blood ionized calcium (Ca++) response to PTH ligand analog injection in wild-type mice; assay type: in vivo; conditions: 40 nmol/kg subcutaneous
T2 construct: WT mice expressing the endogenous rodent PTH receptor; endogenous in cells; host or cells: wild-type C57BL/6(n) mice, in vivo (bone and kidney)
T2 sequence (P41593 27-591): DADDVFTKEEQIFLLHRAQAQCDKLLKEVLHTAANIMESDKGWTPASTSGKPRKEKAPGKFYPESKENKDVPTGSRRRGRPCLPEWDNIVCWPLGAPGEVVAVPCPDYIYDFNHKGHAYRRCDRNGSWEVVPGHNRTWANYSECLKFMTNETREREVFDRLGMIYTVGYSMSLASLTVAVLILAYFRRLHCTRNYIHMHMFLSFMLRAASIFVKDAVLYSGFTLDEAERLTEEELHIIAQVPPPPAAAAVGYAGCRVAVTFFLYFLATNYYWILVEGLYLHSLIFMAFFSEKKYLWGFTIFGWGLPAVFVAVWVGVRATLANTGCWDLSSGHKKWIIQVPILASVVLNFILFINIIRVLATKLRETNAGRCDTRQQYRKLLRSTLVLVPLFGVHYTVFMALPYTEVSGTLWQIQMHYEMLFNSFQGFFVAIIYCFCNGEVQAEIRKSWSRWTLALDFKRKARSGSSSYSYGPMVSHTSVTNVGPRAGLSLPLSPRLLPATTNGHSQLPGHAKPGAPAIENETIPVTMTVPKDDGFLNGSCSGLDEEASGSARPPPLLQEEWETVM
Protocol: (§2) The utility of the hPTH1R-KI mice of the present disclosure as a model for predicting the behavior of different PTH and PTHrP analog peptides was evaluated. Ligand-induced PTH1R signaling in bone and kidney results in a rapid increase in blood levels of free ionized calcium (Ca^++) and a decrease in blood levels of inorganic phosphorus (Pi); changes that occur through the promotion of the release of Ca and Pi from bone mineral stores, the reabsorption of Ca from the renal filtrate, and a suppression of Pi reabsorption in the kidney. Thus, blood Ca^++ and Pi levels were measured in WT and hPTH1R-KI mice before and at times after injection of PTH ligands.
Blood ionized calcium (Ca^++) levels were measured in homozygous mice comprising a heterologous polynucleotide comprising human Parathyroid Hormone 1 Receptor (hPTH1R) exons 4 to 16 (hereinafter “hPTH1R-KI” mice), and WT C57BL/6(n) mice, at age 10 weeks. Mice were treated in accordance with the ethical guidelines adopted by the Massachusetts General Hospital (MGH). […]
Blood was collected from a ˜2 mm tail vein incision and placed into heparinized capillary tube (Multi-cap-S, Siemens Healthcare Diagnostics Inc, Catalog No. 05656514) just prior to injection (t=0), and at 1, 2, 4 and 8 hours after injection, then immediately analyzed for pH-adjusted ionized calcium using a Siemens RapidLab 348 Ca^2+/pH analyzer. […]

PTH1R (WT mice) = target: T3, PTH1R (WT mice) (Mus musculus, UniProt P41593); assay: Antagonist response: blood calcium after co-injection with PTH(1-34) in WT mice; assay type: in vivo; conditions: 3-month-old WT mice, 40 nmol/kg subcutaneous
T3 construct: WT mice expressing the endogenous rodent PTH receptor; endogenous in cells; host or cells: wild-type C57BL/6(n) mice, in vivo (bone and kidney)
T3 sequence (P41593 27-591): T2 sequence (P41593 27-591)
Protocol: as §1

[3] = cited from earlier work
[4] = target: T1, human PTH1R (hPTH1R-KI mice); assay: Serum inorganic phosphorus (Pi) response to PTH ligand analog injection in hPTH1R-KI mice; assay type: in vivo; conditions: 40 nmol/kg
Protocol: To assess changes to blood Pi in response to PTH ligand injection, 10-week-old hPTH1R-KI and wild-type mice were injected with PTH(1-34), PTHrP(1-36), or Abaloparatide (see Example 13) each at a dose of 40 nmol/kg (n=5 mice per group). Tail vein blood was collected into a 1 mL microcentrifuge tubes containing 3 μL 0.5 mM EDTA on ice at t=0, 1, 2, 4, and 8 hours post-injection. The blood samples were centrifuged at 8,000 rpm at 4° C. for 15 minutes, and plasma supernatant was collected and frozen at −80° C. Plasma phosphate was analyzed using a colorimetric phosphate assay kit (AbCam. UK, Catalog No. ab65622).

[5] = target: T1, human PTH1R (hPTH1R-KI mice); assay: Blood ionized calcium (Ca++) response to PTH ligand analog injection in hPTH1R-KI mice; assay type: in vivo, mouse; conditions: 40 nmol/kg subcutaneous
Protocol: as §2
Blood ionized calcium (Ca^++) levels were measured in homozygous mice comprising a heterologous polynucleotide comprising human Parathyroid Hormone 1 Receptor (hPTH1R) exons 4 to 16 (hereinafter “hPTH1R-KI” mice), and WT C57BL/6(n) mice, at age 10 weeks. Mice were treated in accordance with the ethical guidelines adopted by the Massachusetts General Hospital (MGH). Mice were injected subcutaneously in the interscapular region with vehicle (5 mM citrate, 150 mM NaCl, 0.05% Tween80, pH 5.0), or vehicle containing either PTH(1-34), PTHrP(1-36) or abaloparatide, each peptide at a dose of 40 nmol/kg of body weight, with five animals per group.
Blood was collected from a ˜2 mm tail vein incision and placed into heparinized capillary tube (Multi-cap-S, Siemens Healthcare Diagnostics Inc, Catalog No. 05656514) just prior to injection (t=0), and at 1, 2, 4 and 8 hours after injection, then immediately analyzed for pH-adjusted ionized calcium using a Siemens RapidLab 348 Ca^2+/pH analyzer.
Data was processed using Microsoft Excel 2016 and GraphPad Prism 8.0. Data is represented as means+/−standard error, and statistical significance was assessed using a two-tailed Students t-test. Two replicate experiments were performed on separated days for each set of 20 hPTH1R-KI and 20 WT control mice n hPTH1R-KI mice. The replicate experiments gave essentially the same result for the two groups, and the data (n=10) were combined as means+SEM.

[6] = system: ovariectomy-induced osteopenic monkeys; conditions: cited from earlier work
[7] = target: T4, RG conformation of the PTH1R (Homo sapiens, UniProt Q03431); conditions: versus R0 conformation; compared with teriparatide / PTH and PTHrP ligands; cited from earlier work
T4 sequence (Q03431 27-593): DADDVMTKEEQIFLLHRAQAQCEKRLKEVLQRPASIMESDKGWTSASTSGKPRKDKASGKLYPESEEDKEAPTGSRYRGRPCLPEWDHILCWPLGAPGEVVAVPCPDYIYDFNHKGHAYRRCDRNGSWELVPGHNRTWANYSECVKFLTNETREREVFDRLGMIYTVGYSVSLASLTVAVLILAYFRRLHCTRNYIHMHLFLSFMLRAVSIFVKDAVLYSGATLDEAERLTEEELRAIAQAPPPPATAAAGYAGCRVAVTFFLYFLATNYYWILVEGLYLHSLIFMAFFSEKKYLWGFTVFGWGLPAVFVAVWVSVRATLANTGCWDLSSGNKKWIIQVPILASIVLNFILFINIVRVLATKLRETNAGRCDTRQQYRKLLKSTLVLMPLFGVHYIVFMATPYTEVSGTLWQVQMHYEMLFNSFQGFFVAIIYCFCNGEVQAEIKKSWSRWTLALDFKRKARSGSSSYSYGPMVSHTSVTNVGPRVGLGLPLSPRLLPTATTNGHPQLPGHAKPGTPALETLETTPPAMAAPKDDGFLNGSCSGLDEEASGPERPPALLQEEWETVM

[8] = system: ovariectomy-induced osteopenic rats; conditions: cited from earlier work

Compound | blood calcium levels after PTH(1-34) alone [1] | difference in calcemic response duration compared to the other two ligands [2] | blood calcium levels after PTH(1-34) alone (PTH1R (WT mice)) | rate of clearance from the blood ([3]; previous analyses) | phosphaturic response profile [4] | serum Pi levels at 2 hours post-injection [4] | duration of calcemic response [5] | blood Ca++ levels at 4 hours [5] | reversal of bone loss [6] | binding selectivity for the RG conformation of PTH1R [7] | rate of clearance from the blood ([3]; in vivo) | reversal of bone loss [8]
CC[C@H](C)[C@H](NC(=O)[C@H](CCC(=O)O)NC(=O)[C@H](CO)NC(=O)[C@@H](NC(=O)[C@@H](N)CO)C(C)C)C(=O)N[C@@H](CCC(N)=O)C(=O)N[C@@H](CC(C)C)C(=O)N[C@@H](CCSC)C(=O)N[C@@H](Cc1cnc[nH]1)C(=O)N[C@@H](CC(N)=O)C(=O)N[C@@H](CC(C)C)C(=O)NCC(=O)N[C@@H](CCCCN)C(=O)N[C@@H](Cc1cnc[nH]1)C(=O)N[C@@H](CC(C)C)C(=O)N[C@@H](CC(N)=O)C(=O)N[C@@H](CO)C(=O)N[C@@H](CCSC)C(=O)N[C@@H](CCC(=O)O)C(=O)N[C@@H](CCCN=C(N)N)C(=O)N[C@H](C(=O)N[C@@H](CCC(=O)O)C(=O)N[C@@H](Cc1c[nH]c2ccccc12)C(=O)N[C@@H](CC(C)C)C(=O)N[C@@H](CCCN=C(N)N)C(=O)N[C@@H](CCCCN)C(=O)N[C@@H](CCCCN)C(=O)N[C@@H](CC(C)C)C(=O)N[C@@H](CCC(N)=O)C(=O)N[C@@H](CC(=O)O)C(=O)N[C@H](C(=O)N[C@@H](Cc1cnc[nH]1)C(=O)N[C@@H](CC(N)=O)C(=O)N[C@@H](Cc1ccccc1)C(=O)O)C(C)C)C(C)C [PTH(1-34)] | expected rise in blood calcium levels | not seen | expected rise in blood calcium levels | comparable rates of clearance | more prolonged activity in vivo | remained low | more prolonged calcemic response | remained elevated | – | – | – | –
PTHrP(1-36) | – | – | – | – | – | – | more a transient functional response | returned to baseline | – | – | – | –
abaloparatide: synthetic 34-amino acid PTHrP(1-34)-based analogue, AVSEHQLLHDKGKSIQDLRRRELLEKLLXKLHTA, X is Aib (SEQ ID NO: 22) | – | – | – | – | – | returned to near-vehicle control levels | more a transient functional response | returned to baseline | complete reversal of bone loss | more selectively than teriparatide; also recorded: greater selectivity | comparable rates of clearance | complete reversal of bone loss
